Data: patent publication US8709811B2, “Materials and methods for synthesis of a flavor and aroma volatile in plants” (University of Florida Research Foundation, Inc., priority 2003, dated 2014)
“Also recorded” adds a separate entry of the source.

Experiments:
[1] = concentration X humans' ability to detect; cited from earlier work
[2] = trained expert panel; cited from earlier work
[3] = target: LePEDH (tomato 2-phenylethanol dehydrogenase, full-length cLET2M9) (Solanum lycopersicum, UniProt A6N6K7); experiment: Alcohol dehydrogenase activity of E. coli expressed His-tagged LePEDH on phenylacetaldehyde and related substrates (Km); type: biochemical; settings: His tag
Description: The 2-phenylethanol dehydrogenase coding region of the full-length cLET2M9 was cloned in vector pDEST17 with a His tag and transformed into E. coli BL21-AI cells for inducible expression. Alcohol dehydrogenase activities on phenylacetaldehyde and several related substrates were determined.

[4] = system: 2-phenylethanol dehydrogenase (full-length cLET2M9); type: biochemical, tomato; settings: GST-tagged enzyme, decrease in OD340
Description: A full-length 2-phenylethanol dehydrogenase cDNA was cloned by 5′ RACE from tomato fruit cDNA using primer 5′-[…]-3′ (SEQ ID NO: 3). Following sequence analysis the full-length cDNA was obtained by PCR. The coding region was cloned into vector pDEST15 containing a GST tag (Invitrogen) by recombination, and transformed into E. coli strain BL21-SI (Invitrogen) for inducible protein expression. Enzyme activity of crude E. coli extracts was determined by the method of Larroy et al. (2002) using phenylacetaldehyde, cinnamaldehyde or vanillin as a substrate.
The 2-phenylethanol dehydrogenase coding region of the full-length cLET2M9 and the related cLEG71F12 were cloned in vector pDEST15 with a GST tag and transformed into E. coli BL21-SI cells for inducible expression. The production of recombinant protein in E. coli was determined by Western blotting with an anti-GST antibody.

Chain of LePEDH (tomato 2-phenylethanol dehydrogenase, full-length cLET2M9) (A6N6K7 entry or part of it): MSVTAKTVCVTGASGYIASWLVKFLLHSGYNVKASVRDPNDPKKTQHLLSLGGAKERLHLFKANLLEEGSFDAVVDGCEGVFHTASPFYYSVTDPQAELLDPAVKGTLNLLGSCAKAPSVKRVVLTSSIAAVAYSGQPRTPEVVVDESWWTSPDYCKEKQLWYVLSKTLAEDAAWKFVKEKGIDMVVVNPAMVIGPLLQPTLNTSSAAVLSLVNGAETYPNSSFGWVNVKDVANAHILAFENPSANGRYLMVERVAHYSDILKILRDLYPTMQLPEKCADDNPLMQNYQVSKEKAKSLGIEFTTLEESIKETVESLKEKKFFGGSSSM

Which Log odor units [1] does the source give for `CC(=O)CCC=C(C)C` [6-Methyl-5-hepten-2-one] here?
The Log odor units was 0.4.

And the “Odor Characteristics” value [2]?
The value was “fruity, floral”.

With `CCCCCC=O` [Hexanal] as the molecule, how does the Log odor units [1] read?
The Log odor units was 2.8.

What about the “Odor Characteristics” value [2] of the same molecule?
The value was “green/grassy”.

What does the source list for `CC(=O)/C=C/C1=C(C)CCCC1(C)C` [β-ionone]?
Log odor units [1]: 2.8; Odor Characteristics [2]: fruity/floral

Which Log odor units [1] does the source give for `OCCc1ccccc1` [2-Phenylethanol] here?
The Log odor units was 0.3.

And the “Odor Characteristics” value [2]?
Its value is “Nutty”.

Which “Alcohol dehydrogenase activity level as substrate” value [3] does the source give for `O=Cc1ccccc1O` [salicylaldehyde] here?
Its value is “no detectable activity”.

Which “Alcohol dehydrogenase activity level as substrate” value [3] does the source give for `O=CCc1ccccc1` [Phenylacetaldehyde] here?
Its value is “highest level of activity”.

What about the “Alcohol dehydrogenase activity level as substrate” value [4] of the same molecule?
The value was “highest level of activity; also recorded: Highest activity levels”.

What about the Log odor units [1] of the same molecule?
The Log odor units was 0.6.

What about the “Odor Characteristics” value [2] of the same molecule?
The value was “floral/alcohol”.

What does the source list for `CC(C)CCO` [3-Methylbutanol]?
Log odor units [1]: 0.2; Odor Characteristics [2]: earthy, musty

For `CCCC/C=C/C=O` [trans-2-Heptenal], which Log odor units [1] is on record?
The Log odor units was 0.7.

And the “Odor Characteristics” value [2]?
The value was “Green”.

For `C=CC(=O)CC` [1-Penten-3-one], which Log odor units [1] is on record?
Its Log odor units is 2.7.

What about the “Odor Characteristics” value [2] of the same molecule?
Its value is “fruity; also recorded: floral/green”.

Which results are given for `O=C/C=C/c1ccccc1` [Cinnamaldehyde]?
Alcohol dehydrogenase activity level as substrate [3]: Lower activity levels; Alcohol dehydrogenase activity level as substrate [4]: Lower activity levels

Which Log odor units [1] does the source give for `CC/C=C\CC=O` [cis-3-Hexenal] here?
Its Log odor units is 3.7.

And the “Odor Characteristics” value [2]?
Its value is “Tomato/green”.

With `COC(=O)c1ccccc1O` [Methyl salicylate] as the molecule, how does the Log odor units [1] read?
The Log odor units was 0.08.

What about the “Odor Characteristics” value [2] of the same molecule?
Its value is “wintergreen”.

With `COc1cc(C=O)ccc1O` [vanillin] as the molecule, how does the “Alcohol dehydrogenase activity level as substrate” value [4] read?
The value was “negligible activity”.

Which “Alcohol dehydrogenase activity level as substrate” value [3] does the source give for `O=Cc1ccccc1` [Benzaldehyde] here?
The value was “Lower activity levels”.

Which Log odor units [1] does the source give for `CC(C)Cc1nccs1` [2-Isobutylthiazole] here?
Its Log odor units is 1.0.

What about the “Odor Characteristics” value [2] of the same molecule?
Its value is “Tomato vine”.

Which Log odor units [1] does the source give for `O=[N+]([O-])CCc1ccccc1` [1-nitro-2-Phenylethane] here?
The Log odor units was 0.9.

What about the “Odor Characteristics” value [2] of the same molecule?
The value was “musty, earthy”.

For `C/C=C/C(=O)C1=C(C)C=CCC1(C)C` [β-Damascenone], which Log odor units [1] is on record?
The Log odor units was 2.7.

And the “Odor Characteristics” value [2]?
Its value is “Fruity”.

Which results are given for `CCC/C=C/C=O` [trans-2-Hexenal]?
Log odor units [1]: 1.2; Odor Characteristics [2]: Green
